Read-outs that look alike come from different tables or passages of the source. Blank lines part the entries; values can stand above or below the molecule they belong to.
Columns and labels:
[1] = tested on: DU-145 human prostate tumor xenografts
Method: The purpose of the experiment was to evaluate the antitumor efficacy of methotrexate (MTX) and its orotate derivative (MTX orotate) against subcutaneously (SC) implanted DU=145 human prostate tumor xenografts in male athymic NCr-nu/nu mice.
Drug formulation—2.7 mg/mL solution of MTX (Sigma-Aldrich, catalog no. M9929, lot no. 114K1572 used on days 15 and 19, and catalog no. A6770, lot no. 21H0324 used on days 19, 23 and 35) was formulated fresh on each day of treatment in 2% sodium bicarbonate in water for injection (WFI). The 2.7 mg/mL solution was diluted with sodium bicarbonate in WFI to 1.8 and 1.2 mg/mL.
A 4.25 mg/mL solution of MTX orotate was formulated fresh on each day of treatment in 2% bicarbonate in WFI to 2.83 and 1.89 mg/mL. Control group was treated with 2% sodium bicarbonate in WFI. Both compounds and the vehicle were administered to mice by exact individual animal's body weight on each day of treatment with the injection volume being 0.1 mL/10 g of body weight.
Seven groups of 10 mice per group were injected intraperitoneally (ip) once every four days for a total of 3 injections (q4d×3, Days 15, 19, 23 and 35) as follows: Group 1—2% sodium bicarbonate, Groups 2, 3 and 4 with MTX at 27, 18, and 12 mg/kg/dose, respectively. Groups 5, 6, and 7 were treated with MTX orotate at dosages 42.5, 28.3 and 18.9 mg/kg/dose respectively (based on MW of MTX=454.4 and MW of MTX orotate=714.7).
Tumors were measured and volume determined using formula L×W^2/2=mm^3; and weight calculated assuming 1 mm^3=1 mg. The study was terminated 47 days after tumor implantation

[2] = Pharmacokinetic analysis and oral bioavailability in rats; type: in vivo, male Spagrue-Dawley rats; conditions: rat; for AUC: estimated for infinity; for half-life: read-out: Elim Half-Life (converted)
Method: A PK study was done in rats to determine the PK profile and oral bioavailability of methotrexate and compared this to the orotate salt of methotrexate. This was done in male Spagrue-Dawley rats. This compound was administered intravenously (IV; 10 mg/kg; for methotrexate and 15.7 mg/kg for methotrexate orotate 1 mL/kg; vehicle 1% NaHCO3 in 0.9% saline) or via oral gavage (PO; 100 mg/kg methotrexate; 157 mg/kg methotrexate orotate; vehicle 1% NaHCO3 in 0.9% saline) and the plasma levels of compound in the plasma were determined at specified times. By calculating the ratio of the area under the curve for the compound concentrations (estimated for infinity as is typically done) for PO vs IV, percent oral bioavailability can be determined. Of course normalization for the different doses given IV vs PO was taken into account for determination of oral bioavailability.

[3] = in vivo; cited from earlier work
[4] = IV, 15.7 mg/kg methotrexate orotate
[5] = PO, 157 mg/kg methotrexate orotate
[6] = male, Sprague-Dawley, plasma, IV, 10 mg/kg methotrexate
[7] = male, Sprague-Dawley, plasma, PO, 100 mg/kg methotrexate

Apparent volume of distribution and plasma clearance rate relative to methotrexate ([2]; IV): higher | Area under the curve (AUC) relative to methotrexate ([2]; IV): slightly lower | Cl [2, 4]: 15.785 ± 1.025 L/h/kg | Cmax plasma [2, 4]: 2.843 ± 0.121 µg/mL | Elim Half-Life [2, 4]: 28.2 ± 0 min | Tmax [2, 4]: 6 ± 0 min | Vd [2, 4]: 10.804 ± 0.733 L/kg | AUC [2, 4]: 792 ± 62 ng·mL·h | Elimination half-life relative to methotrexate ([2]; PO): shorter | Rate of getting into the plasma relative to methotrexate ([2]; PO): somewhat slower | % bioavailability (oral) ([2]; PO 157 mg/kg vs IV 15.7 mg/kg methotrexate orotate, dose-normalized AUC ratio): 14% | Cl [2, 5]: 193.983 ± 31.091 L/h/kg | Cmax plasma [2, 5]: 0.059 ± 0.02 µg/mL | Elim Half-Life [2, 5]: 1060 ± 480 min | Tmax [2, 5]: 96 ± 24 min | Vd [2, 5]: 3345.18 ± 472.947 L/kg | AUC [2, 5]: 1140 ± 390 ng·mL·h
SMILES: CN(Cc1cnc2nc(N)nc(N)c2n1)c1ccc(C(=O)NC(CCC(=O)O)C(=O)[O-])cc1.O=C(O)c1cc(=O)[nH]c(=O)[nH]1.[Na+] (stereo not drawn) [Methotrexate Orotate, sodium methotrexate orotate]
Tumor weight - inhibition of growth of DU-145 xenografts ([1]; MTX orotate highest dose (42.5 mg/kg/dose) ip q4d): marginal inhibition | Tumor weight - tumor inhibition ([1]; MTX orotate two low doses (28.3 and 18.9 mg/kg/dose) ip q4d, SC DU-145 xenografts): no effect | Tumor growth compared with MTX ([1]; ip, equivalent dosages, SC DU-145 xenografts): no significant difference

Cmax [2, 6]: 3.78 ± 0.636 µg/mL | clearance [2, 6]: 9.43 L/h/kg | half-life [2, 6]: 26.4 ± 0.6 min | Tmax ([2]; male, Sprague-Dawley, plasma, IV, 10 mg/kg methotrexate, read-out: Tmax): 6 min | Vd ([2]; male, Sprague-Dawley, plasma, IV, 10 mg/kg methotrexate, read-out: Vd): 6.12 ± 0.671 L/kg | bioavailability ([2]; male, Sprague-Dawley, plasma, PO 100 mg/kg vs IV 10 mg/kg methotrexate, dose-normalized AUC ratio): 6% | Cmax [2, 7]: 0.051 ± 0.012 µg/mL | half-life [2, 7]: 1880 ± 924 min | Tmax ([2]; male, Sprague-Dawley, plasma, PO, 100 mg/kg methotrexate, read-out: Tmax): 54 ± 36 min | AUC ([2]; IV, 10 mg/kg methotrexate): 1151 ± 142 ng·mL·h | Cl ([2]; PO, 100 mg/kg methotrexate): 152.227 ± 15.436 L/h/kg | Vd ([2]; PO, 100 mg/kg methotrexate): 6811.662 ± 3415.946 L/kg | AUC ([2]; PO, 100 mg/kg methotrexate): 671 ± 70 ng·mL·h
SMILES: CN(Cc1cnc2nc(N)nc(N)c2n1)c1ccc(C(=O)N[C@@H](CCC(=O)O)C(=O)O)cc1 [Methotrexate, methotrexate]
Tumor weight - tumor inhibition ([1]; MTX 27, 18 and 12 mg/kg/dose ip q4d, SC DU-145 xenografts): no effect | Bound to plasma proteins [3]: approximately 50% | Elimination from plasma, gamma half life [3]: 1620 min

Source: patent US7601834B2, “Compositions and methods of reducing side effects and toxicity of methotrexate when given as orotate derivatives” (SavviPharm Inc, priority 2005, dated 2009)
